These results are taken from US20070027150A1 (priority 2005, published 2007).

Some results are limits rather than exact numbers.

The first assay has as its target His-tagged N-terminal ATP binding domain (amino acid residues 9-236) of HSP90α (Homo sapiens, UniProt P07900). Nature of the assay: HSP90 inhibitor binding potency: TRF competition binding assay. The following applies: Table I; read-out: Hsp90 IC50 Range. The protocol:
HSP90 Inhibitor Binding Potency: TRF Binding Assay
In this example, the binding potency of HSP90 inhibitors as measured by a TRF binding assay is described.
TRF competition binding assays were performed to determine the binding potency (IC50 values) of HSP90 inhibitors. Purified His-tagged N-terminal ATP binding domain (amino acid residues 9-236) of HSP90α (HSP90α GeneID: 3320; mRNA Sequence NM_005348) was incubated for two hours at room temperature in binding buffer (50 mM HEPES, 6 mM MgCl2, 20 mM KCl and 0.1% BSA) with biotinylated radicicol and progressively higher concentrations of the competing compounds. A fraction of the mixture was transferred to capture plates (coated with streptavidin) and incubated for one hour at room temperature. After washing with DELFIA wash buffer, europium-labeled anti-his antibody was added and incubated for two hours at room temperature, followed by washing with DELFIA buffer. DELFIA enhancement solution was then added. After gentle shaking for 10 minutes, the plates were read in VICTOR for europium counts.
Turning to `Cc1nc(N)nc2c1C(=O)CC(c1c(OCCN3CCNCC3)cccc1-c1cccnc1F)C2` (centres unmarked) [Compound 156, 2-amino-7-[2-(2-fluoro-pyridin-3-yl)-6-(2-piperazin-1-yl-ethoxy)-phenyl]-4-methyl-7,8-dihydro-6H-quinazolin-5-one], the IC50 (usually the concentration at which inhibition is half-maximal) is less than 1 µM.

`COc1cccc(C2CCCCC2)c1C1CC(=O)c2c(C)nc(N)nc2C1` (centres unmarked) [Compound 20, 2-amino-7-(2-cyclohexyl-6-methoxyphenyl)-4-methyl-7,8-dihydroquinazolin-5(6H)-one]: the concentration for half-maximal inhibition (IC50) was greater than 10 µM.

On to `Cc1nc(N)nc2c1C(=O)CC(c1ccccc1-c1c(C)noc1C)C2` (centres unmarked) [Compound 59, 2-amino-7-[2-(3,5-dimethylisoxazol-4-yl)phenyl]-4-methyl-7,8-dihydroquinazolin-5(6H)-one], for which the IC50 fell in the range of 1 to 10 µM.

For the molecule `Cc1nc(N)nc2c1C(=O)CC(c1ccc(F)cc1C1CCCCC1)C2` (centres unmarked) [Compound 172, 2-amino-7-(2-cyclohexyl-4-fluorophenyl)-4-methyl-7,8-dihydroquinazolin-5(6H)-one], the IC50 is 1 to 10 µM.

`Cc1nc(N)nc2c1C(=O)CC(c1ccccc1-c1cccc(C(F)(F)F)c1)C2` (centres unmarked) [Compound 110, 2-amino-4-methyl-7-[3′-(trifluoromethyl)-1,1′-biphenyl-2-yl]-7,8-dihydroquinazolin-5(6H)-one]: the IC50 lay in the range of 1 to 10 µM.

For `COc1ccc(F)cc1-c1ccccc1C1CC(=O)c2c(C)nc(N)nc2C1` (centres unmarked) [Compound 96, 2-amino-7-(5′-fluoro-2′-methoxy-1,1′-biphenyl-2-yl)-4-methyl-7,8-dihydroquinazolin-5(6H)-one], the half-maximal inhibitory concentration (IC50) is less than 1 µM.

For the molecule `Cc1nc(N)nc2c1C(=O)CC(c1cccc(-c3ccncc3)c1)C2` (centres unmarked) [Compound 30, 2-amino-4-methyl-7-(3-pyridin-4-ylphenyl)-7,8-dihydroquinazolin-5(6H)-one], the IC50 was greater than 10 µM.

Consider `COc1ccc(-c2ccccc2C2CC(=O)c3c(C)nc(N)nc3C2)c(OC)c1` (centres unmarked) [Compound 107, 2-amino-7-(2′,4′-dimethoxy-1,1′-biphenyl-2-yl)-4-methyl-7,8-dihydroquinazolin-5(6H)-one], for which the IC50 lay within 1 to 10 µM.

Regarding `Cc1nc(N)nc2c1C(=O)CC(c1c(O)cccc1-c1cccnc1F)C2` (centres unmarked) [Compound 170, 2-amino-7-[2-(2-fluoro-pyridin-3-yl)-6-hydroxy-phenyl]-4-methyl-7,8-dihydro-6H-quinazolin-5-one], the IC50 was less than 1 µM.

Take `Cc1nc(N)nc2c1C(=O)CC(c1c(C3CCCCC3)cnn1C)C2` (centres unmarked) [Compound 48, 2-amino-7-(4-cyclohexyl-2-methyl-2H-pyrazol-3-yl)-4-methyl-7,8-dihydro-6H-quinazolin-5-one]: the IC50 is less than 1 µM.

For `Cc1nc(N)nc2c1C(=O)CC(c1ccccc1-c1ccccc1Cl)C2` (centres unmarked) [Compound 79, 2-amino-7-(2′-chloro-1,1′-biphenyl-2-yl)-4-methyl-7,8-dihydroquinazolin-5(6H)-one], the IC50 was less than 1 µM.

For `Cc1nc(N)nc2c1C(=O)CC(c1c(OCCN3CCCCC3)cccc1-c1cccnc1F)C2` (centres unmarked) [Compound 155, 2-amino-7-[2-(2-fluoro-pyridin-3-yl)-6-(2-piperidin-1-yl-ethoxy)-phenyl]-4-methyl-7,8-dihydro-6H-quinazolin-5-one], the IC50 was less than 1 µM.

For the molecule `Cc1nc(N)nc2c1C(=O)CC(c1ccccc1-c1ccc(F)nc1)C2` (centres unmarked) [Compound 56, 2-amino-7-[2-(6-fluoropyridin-3-yl)phenyl]-4-methyl-7,8-dihydroquinazolin-5(6H)-one], the IC50 was less than 1 µM.

Turning to `Cc1nc(N)nc2c1C(=O)CC(c1ccccc1-c1cccnc1F)C2` (centres unmarked) [Compound 55, 2-amino-7-[2-(2-fluoropyridin-3-yl)phenyl]-4-methyl-7,8-dihydroquinazolin-5(6H)-one], the IC50 is less than 1 µM.

Take `Cc1nc(N)nc2c1C(=O)CC(c1ccc(F)cc1-c1cccnc1F)C2` (centres unmarked) [Compound 87, 2-amino-7-[4-fluoro-2-(2-fluoropyridin-3-yl)phenyl]-4-methyl-7,8-dihydroquinazolin-5(6H)-one]: the IC50 was less than 1 µM.

Turning to `COC(=O)c1ccccc1C1CC(=O)c2c(C)nc(N)nc2C1` (centres unmarked) [Compound 165, methyl 2-(2-amino-4-methyl-5-oxo-5,6,7,8-tetrahydroquinazolin-7-yl)benzoate], the IC50 is less than 1 µM.

For the molecule `Cc1nc(N)nc2c1C(=O)CC(c1cnccc1-c1ccccc1)C2` (centres unmarked) [Compound 161, 2-amino-4-methyl-7-(4-phenylpyridin-3-yl)-7,8-dihydroquinazolin-5(6H)-one], the IC50 is less than 1 µM.

As for `Cc1nc(N)nc2c1C(=O)CC(c1ccccc1C#Cc1ccccc1)C2` (centres unmarked) [Compound 37, 2-amino-4-methyl-7-[2-(phenylethynyl)phenyl]-7,8-dihydroquinazolin-5(6H)-one], the IC50 is greater than 10 µM.

`Cc1nc(N)nc2c1C(=O)CC(c1ccccc1S(=O)(=O)c1ccccc1)C2` (centres unmarked) [Compound 23, 2-amino-7-(2-benzenesulfonyl-phenyl)-4-methyl-7,8-dihydro-6H-quinazolin-5-one]: the IC50 is greater than 10 µM.

In the case of `Cc1nc(N)nc2c1C(=O)CC(c1cccc(Br)c1)C2` (centres unmarked) [Compound 7, 2-amino-7-(3-bromophenyl)-4-methyl-7,8-dihydroquinazolin-5(6H)-one], the IC50 was 1 to 10 µM.

The assay is the same for the next values; noted with them: Table II; read-out: Hsp90 IC50 Range.
Consider `Cc1nc(N)nc2c1C(=O)C[C@@H](c1ccc(F)cc1-c1cccc(F)n1)C2` [Compound 214, (S)-2-amino-7-[4-fluoro-2-(6-fluoro-pyridin-2-yl)-phenyl]-4-methyl-7,8-dihydro-6H-quinazolin-5-one], for which the half-inhibitory concentration (IC50) is less than 1 µM.

Consider `COc1nc(-c2cc(F)ccc2[C@@H]2CC(=O)c3c(C)nc(N)nc3C2)c(C)nc1N` [Compound 337, (S)-2-amino-7-[2-(5-amino-6-methoxy-3-methyl-pyrazin-2-yl)-4-fluoro-phenyl]-4-methyl-7,8-dihydro-6H-quinazolin-5-one], for which the IC50 was less than 1 µM.

Turning to `Cc1nc(N)nc2c1C(=O)CC(c1ccc(F)cc1-c1ncc(C(F)(F)F)cn1)C2` (centres unmarked) [Compound 270, 2-amino-7-[4-fluoro-2-(5-trifluoromethyl-pyrimidin-2-yl)-phenyl]-4-methyl-7,8-dihydro-6H-quinazolin-5-one], the IC50 is less than 1 µM.

For the molecule `CCOc1cncc(-c2cc(F)ccc2[C@@H]2CC(=O)c3c(C)nc(N)nc3C2)n1` [Compound 336, (S)-2-amino-7-[2-(6-ethoxy-pyrazin-2-yl)-4-fluoro-phenyl]-4-methyl-7,8-dihydro-6H-quinazolin-5-one], the IC50 is less than 1 µM.

As to `COc1cnc(-c2cc(F)ccc2C2CC(=O)c3c(C)nc(N)nc3C2)nc1OC` (centres unmarked) [Compound 276, 2-amino-7-[2-(4,5-dimethoxy-pyrimidin-2-yl)-4-fluoro-phenyl]-4-methyl-7,8-dihydro-6H-quinazolin-5-one], the concentration for half-maximal inhibition (IC50) was less than 1 µM.

For the molecule `Cc1nc(N)nc2c1C(=O)CC(c1ccc(F)cc1OCC(C)C)C2` (centres unmarked) [Compound 266, 2-amino-7-(4-fluoro-2-isobutoxy-phenyl)-4-methyl-7,8-dihydro-6H-quinazolin-5-one], the half-maximal inhibitory concentration (IC50) is less than 1 µM.

Turning to `COc1cccc(Cc2nc(N)nc3c2C(=O)CC(c2ccccc2)C3)c1` (centres unmarked) [Compound 306, 2-amino-4-(3-methoxy-benzyl)-7-phenyl-7,8-dihydro-6H-quinazolin-5-one], the IC50 was in the range of 1 to 10 µM.

In the case of `COc1cccc(-c2ccccc2C2CC(=O)c3cnc(N)nc3C2)n1` (centres unmarked) [Compound 246, 2-amino-7-[2-(6-methoxy-pyridin-2-yl)-phenyl]-7,8-dihydro-6H-quinazolin-5-one], the IC50 was less than 1 µM.

Turning to `Nc1nc(Cc2ccc(F)cc2)c2c(n1)CC(c1ccccc1)CC2=O` (centres unmarked) [Compound 307, 2-amino-4-(4-fluoro-benzyl)-7-phenyl-7,8-dihydro-6H-quinazolin-5-one], the IC50 was in the range of 1 to 10 µM.

Consider `COc1ccccc1Oc1cc(F)ccc1C1CC(=O)c2c(C)nc(N)nc2C1` (centres unmarked) [Compound 290, 2-amino-7-[4-fluoro-2-(2-methoxy-phenoxy)-phenyl]-4-methyl-7,8-dihydro-6H-quinazolin-5-one], for which the IC50 fell in the range of 1 to 10 µM.

Regarding `Cc1nc(N)nc2c1C(=O)CC(c1ccccc1S(=O)(=O)C(C)(C)C)C2` (centres unmarked) [Compound 182, 2-amino-4-methyl-7-[2-(2-methyl-propane-2-sulfonyl)-phenyl]-7,8-dihydro-6H-quinazolin-5-one], the IC50 was less than 1 µM.

For the molecule `COc1nc(-c2cc(F)ccc2[C@H]2CC(=O)c3c(C)nc(N)nc3C2)ncc1F` [Compound 229, (R)-2-amino-7-[4-fluoro-2-(5-fluoro-4-methoxy-pyrimidin-2-yl)-phenyl]-4-methyl-7,8-dihydro-6H-quinazolin-5-one], the half-maximal inhibitory concentration (IC50) lay within 1 to 10 µM.

As for `CCc1nc(N)nc2c1C(=O)CC(c1ccc(F)cc1-c1ccccc1OC)C2` (centres unmarked) [Compound 321, 2-amino-4-ethyl-7-(5-fluoro-2′-methoxy-biphenyl-2-yl)-7,8-dihydro-6H-quinazolin-5-one], the IC50 was in the range of 1 to 10 µM.

Regarding `Cc1nc(N)nc2c1C(=O)CC(c1c(-c3cccnc3F)cnn1Cc1ccccc1)C2` (centres unmarked) [Compound 215, 2-amino-7-[2-benzyl-4-(2-fluoro-pyridin-3-yl)-2H-pyrazol-3-yl]-4-methyl-7,8-dihydro-6H-quinazolin-5-one], the half-inhibitory concentration (IC50) fell in the range of 1 to 10 µM.

Turning to `CCc1cccc(-c2cc(F)ccc2C2CC(=O)c3c(C)nc(N)nc3C2)n1` (centres unmarked) [Compound 183, 2-amino-7-[2-(6-ethyl-pyridin-2-yl)-4-fluoro-phenyl]-4-methyl-7,8-dihydro-6H-quinazolin-5-one], the IC50 was less than 1 µM.
